In patent publication EP0705841A1, “Peptides havng antigenic activity against hepatitis A virus (HAV)” (SORIN BIOMEDICA S.p.A., priority 1994, dated 1996):

Test system: 8F4H9B monoclonal antibody
Experiment: ELISA assay: reactivity of peptides adhering to the solid phase with the 8F4H9B monoclonal antibody
Assay type: binding, mice
Conditions: peptides in monomer form adhering to solid phase (fig.1, fig.2)
Description: The solid phase was obtained on PVC trays (Nunc), that were added with 200 µl of a peptide solution at various concentrations in a carbonate buffer 50 mM, pH 9.6. Trays were incubated overnight at 4°C when added with the monomer peptide solution, and for 2 hours at 37°C when added with the tetramer peptide solution.
Trays were saturated with 300 µl of a solution of gelatin 2%, in Tris-HCl, 0.1M, pH 7.5, for 1 hour at room temperature. Antibodies were diluted in a solution, comprising PBS, EDTA 0.03%, Triton-X100 0.2%, Tween 20 0.2% and BSA fraction V 3.2%; and incubated for 3 hours at 37°C. Trays were washed four times with an ET-System Sorin automatic washer, using PBS/Tween 20 0.1%, and the reaction detected by adding 100 µl of a chromogen and a substrate (Sorin DEIA KIT). The reaction was blocked after 30 min. by adding 200 µl of H₂SO₄ 1N, and the absorbance read at 450 nm.

Substance: DVMYLH [peptide 36 (Table 1)]
- reactivity with the 8F4H9B-HRP monoclonal antibody: reacted with the antibody, even if having shown a lesser reactivity than the PM peptide

Substance: DFMWMH [peptide 17 (Table 1)]
- reactivity with the 8F4H9B-HRP monoclonal antibody: reacted with the antibody, even if having shown a lesser reactivity than the PM peptide
